Earlier results, collected in publication PMC5742115, “Pharmacophore Modeling and in Silico/in Vitro Screening for Human Cytochrome P450 11B1 and Cytochrome P450 11B2 Inhibitors” (Frontiers in Chemistry, 2017).
Where two headings read alike, the source gives them in different places.

Columns and labels:
[1] = tested on: CYP11B2; conditions: reported activity, supplementary Table 1, read-out: CYP11B2 IC50, cited from earlier work
[2] = tested on: CYP11B1; conditions: reported activity, supplementary Table 1, read-out: CYP11B1 IC50, cited from earlier work

For `Fc1ccccc1-c1ccc(Cn2ccnc2)cn1` [CHEMBL2011244], the IC50 ([1]; ref Hille et al., 2011a) is given as 1740 nM and the IC50 ([2]; ref Hille et al., 2011a) is given as 72 nM.
In the case of `Oc1ccc(-c2ccc(Cn3ccnc3)cn2)cc1F` [CHEMBL2011246], the IC50 ([1]; ref Hille et al., 2011a) is given as 237 nM and the IC50 ([2]; ref Hille et al., 2011a) is given as 17 nM.
For `c1ccc2c(-c3ccc(Cn4ccnc4)cn3)cccc2c1` [CHEMBL2011253], the IC50 ([1]; ref Emmerich et al., 2013) is given as 656 nM, the IC50 ([1]; ref Hille et al., 2011a) is given as 2080 nM and the IC50 ([2]; ref Emmerich et al., 2013) is given as 68 nM. The IC50 ([2]; ref Hille et al., 2011a) was 42 nM.
For `c1ccc2c(-c3ccc(Cn4ccnc4)cn3)cncc2c1` [CHEMBL2011260], the IC50 ([1]; ref Hille et al., 2011a) is given as 914 nM and the IC50 ([2]; ref Hille et al., 2011a) is given as 95 nM.
In the case of `c1csc(-c2ccc(Cn3ccnc3)cn2)c1` [CHEMBL2011261], the IC50 ([1]; ref Hille et al., 2011a) is given as 1240 nM and the IC50 ([2]; ref Hille et al., 2011a) is given as 75 nM.
For `Clc1ncc(Cn2ccnc2)cc1-c1cccs1` [CHEMBL2011430], the IC50 ([1]; ref Hille et al., 2011a) is listed as 416 nM and the IC50 ([2]; ref Hille et al., 2011a) is listed as 73 nM.
In the case of `c1ccc2c(-c3ccc(Cn4ccnc4)cn3)csc2c1` [CHEMBL2011433], the IC50 ([1]; ref Hille et al., 2011a) is listed as 1160 nM and the IC50 ([2]; ref Hille et al., 2011a) is listed as 40 nM.
In the case of `c1cn(Cc2ccc(-c3ccoc3)nc2)cn1` [CHEMBL2011435], the IC50 ([1]; ref Hille et al., 2011a) is listed as 2830 nM and the IC50 ([2]; ref Hille et al., 2011a) is listed as 76 nM.
For `c1coc(-c2cc(Cn3ccnc3)cnc2-c2ccco2)c1` [CHEMBL2011437], the IC50 ([1]; ref Hille et al., 2011a) is listed as 830 nM and the IC50 ([2]; ref Hille et al., 2011a) is listed as 29 nM.
In the case of `CC(c1cc2c3c(c1)CCN3C(=O)CC2)n1ccnc1` (stereo not drawn) [CHEMBL2163636], the IC50 ([1]; ref Yin et al., 2012) is listed as 15 nM and the IC50 ([2]; ref Yin et al., 2012) is listed as 17 nM.
For `CCC(c1cc2c3c(c1)CCN3C(=O)CC2)n1ccnc1` (stereo not drawn) [CHEMBL2163637], the IC50 ([1]; ref Yin et al., 2012) is listed as 5.8 nM and the IC50 ([2]; ref Yin et al., 2012) is listed as 6.5 nM.
For `CC(C)C(c1cc2c3c(c1)CCN3C(=O)CC2)n1ccnc1` (stereo not drawn) [CHEMBL2163638], the IC50 ([1]; ref Yin et al., 2012) is listed as 1.4 nM and the IC50 ([2]; ref Yin et al., 2012) is listed as 3.8 nM.
In the case of `O=C1CCc2cc(C(C3CC3)n3ccnc3)cc3c2N1CC3` (stereo not drawn) [CHEMBL2163639], the IC50 ([1]; ref Yin et al., 2012) is listed as 24 nM and the IC50 ([2]; ref Yin et al., 2012) is listed as 2.2 nM.
For `O=C1CCc2cc(C(C3CCC3)n3ccnc3)cc3c2N1CC3` (stereo not drawn) [CHEMBL2163640], the IC50 ([1]; ref Yin et al., 2012) is given as 4.2 nM and the IC50 ([2]; ref Yin et al., 2012) is given as 3.4 nM.
For `C=C(c1cc2c3c(c1)CCN3C(=O)CC2)n1ccnc1` [CHEMBL2163641], the IC50 ([1]; ref Yin et al., 2012) is given as 100 nM and the IC50 ([2]; ref Yin et al., 2012) is given as 19 nM.
In the case of `O=C1CCc2cc(C(c3ccccc3F)n3ccnc3)cc3c2N1CC3` (stereo not drawn) [CHEMBL2163642], the IC50 ([1]; ref Yin et al., 2012) is given as 19 nM and the IC50 ([2]; ref Yin et al., 2012) is given as 40 nM.
For `O=C1CCc2cc(C(c3cccc(F)c3)n3ccnc3)cc3c2N1CC3` (stereo not drawn) [CHEMBL2163643], the IC50 ([1]; ref Yin et al., 2012) is listed as 18 nM and the IC50 ([2]; ref Yin et al., 2012) is listed as 29 nM.
In the case of `O=C1CCc2cc(C(c3ccc(F)cc3)n3ccnc3)cc3c2N1CC3` (stereo not drawn) [CHEMBL2163644], the IC50 ([1]; ref Yin et al., 2012) is given as 29 nM and the IC50 ([2]; ref Yin et al., 2012) is given as 27 nM.
In the case of `COc1cccc(C(c2cc3c4c(c2)CCN4C(=O)CC3)n2ccnc2)c1` (stereo not drawn) [CHEMBL2163645], the IC50 ([1]; ref Yin et al., 2012) is given as 88 nM and the IC50 ([2]; ref Yin et al., 2012) is given as 110 nM.
For `O=C1CCc2cc(C(c3ccccc3)n3ccnc3)cc3c2N1CC3` (stereo not drawn) [CHEMBL2163649], the IC50 ([1]; ref Yin et al., 2012) is listed as 33 nM and the IC50 ([2]; ref Yin et al., 2012) is listed as 50 nM.
For `O=C1CCc2cc(C(c3ccco3)n3ccnc3)cc3c2N1CC3` (stereo not drawn) [CHEMBL2163650], the IC50 ([1]; ref Yin et al., 2012) is listed as 47 nM and the IC50 ([2]; ref Yin et al., 2012) is listed as 20 nM.
For `O=C1CCc2cc(C(c3cccs3)n3ccnc3)cc3c2N1CC3` (stereo not drawn) [CHEMBL2163651], the IC50 ([1]; ref Yin et al., 2012) is given as 18 nM and the IC50 ([2]; ref Yin et al., 2012) is given as 13 nM.
For `COc1cc2c(cc1-c1cccnc1)CCC(=O)N2C` [CHEMBL2165315], the IC50 ([1]; ref Hu et al., 2012) is listed as 19 nM and the IC50 ([2]; ref Hu et al., 2012) is listed as 1100 nM.
In the case of `CCOc1cc2c(cc1-c1cccnc1)CCC(=O)N2C` [CHEMBL2165317], the IC50 ([1]; ref Hu et al., 2012) is listed as 19 nM and the IC50 ([2]; ref Hu et al., 2012) is listed as 790 nM.
In the case of `O=C1CCc2cc(-c3cccnc3)c(OCc3ccccc3)cc2N1` [CHEMBL2165320], the IC50 ([1]; ref Hu et al., 2012) is given as 22 nM and the IC50 ([2]; ref Hu et al., 2012) is given as 44 nM.
In the case of `O=C1CCc2cc(-c3cccnc3)cc(Br)c2N1` [CHEMBL2165322], the IC50 ([1]; ref Hu et al., 2012) is listed as 12 nM and the IC50 ([2]; ref Hu et al., 2012) is listed as 1420 nM.
For `C=C(c1ccncc1)c1cc2c3c(c1)CCN3C(=O)CC2` [CHEMBL2312949], the IC50 ([1]; ref Yin et al., 2013) is listed as 96 nM and the IC50 ([2]; ref Yin et al., 2013) is listed as 1230 nM.
For `CC(c1ccncc1)c1cc2c3c(c1)CCN3C(=O)CC2` (stereo not drawn) [CHEMBL2312950], the IC50 ([1]; ref Yin et al., 2013) is given as 74 nM and the IC50 ([2]; ref Yin et al., 2013) is given as 140 nM.
In the case of `O=C1CCc2cc(C(O)(c3ccccc3)c3ccncc3)cc3c2N1CC3` (stereo not drawn) [CHEMBL2312953], the IC50 ([1]; ref Yin et al., 2013) is listed as 85 nM and the IC50 ([2]; ref Yin et al., 2013) is listed as 745 nM.
For `COc1ccc(C(c2ccncc2)c2cc3c4c(c2)CCN4C(=O)CC3)cc1` (stereo not drawn) [CHEMBL2312957], the IC50 ([1]; ref Yin et al., 2013) is given as 46 nM and the IC50 ([2]; ref Yin et al., 2013) is given as 1690 nM.
In the case of `O=C1CCc2cc(C(c3ccncc3)c3cccc(F)c3)cc3c2N1CC3` (stereo not drawn) [CHEMBL2312958], the IC50 ([1]; ref Yin et al., 2013) is listed as 88 nM and the IC50 ([2]; ref Yin et al., 2013) is listed as 532 nM.
In the case of `O=C1CCc2cc(C(c3ccncc3)c3ccc(F)cc3)cc3c2N1CC3` (stereo not drawn) [CHEMBL2312959], the IC50 ([1]; ref Yin et al., 2013) is given as 56 nM and the IC50 ([2]; ref Yin et al., 2013) is given as 88 nM.
In the case of `O=C1CCc2cc(C(c3ccncc3)c3cccc(Cl)c3)cc3c2N1CC3` (stereo not drawn) [CHEMBL2312960], the IC50 ([1]; ref Yin et al., 2013) is listed as 51 nM and the IC50 ([2]; ref Yin et al., 2013) is listed as 646 nM.
For `O=C1CCc2cc(C(c3ccncc3)c3ccc(Cl)cc3)cc3c2N1CC3` (stereo not drawn) [CHEMBL2312961], the IC50 ([1]; ref Yin et al., 2013) is given as 32 nM and the IC50 ([2]; ref Yin et al., 2013) is given as 92 nM.
In the case of `Cc1cccc(C(c2ccncc2)c2cc3c4c(c2)CCN4C(=O)CC3)c1` (stereo not drawn) [CHEMBL2312962], the IC50 ([1]; ref Yin et al., 2013) is listed as 41 nM and the IC50 ([2]; ref Yin et al., 2013) is listed as 1340 nM.
